≈ marks a conversion by molar mass, not a printed value.
Assays:
[1] = Cytotoxicity against Homo sapiens (human) HEL cells assessed as alteration in cell morphology by microscopy; assay type: cell-based; conditions: for MCC: read-out: MTC
Staphylococcus aureus = test: Antimicrobial activity against Staphylococcus aureus after 24 hr by tube dilution method; assay type: functional
Escherichia coli = test: Antimicrobial activity against Escherichia coli after 24 hr by tube dilution method; assay type: functional
[2] = tested on: Human immunodeficiency virus 2; test: Antiviral activity against Human immunodeficiency virus type 2 (ISOLATE ROD) infected MT4 cells assessed as inhibition of virus-induced cytopathic effect after 4 days by MTT assay; assay type: functional, organism-based; conditions: Human immunodeficiency virus 2, ISOLATE ROD, MT4, 96 h
[3] = tested on: Human herpesvirus 3 strain Oka vaccine; test: Antiviral activity against Human herpesvirus 3 strain Oka vaccine OKA 07-1 (Varicella zoster virus ) infected in human HEL cells assessed as inhibition of virus-induced cytopathicity; assay type: functional, organism-based; conditions: Human alphaherpesvirus 3, HEL
[4] = tested on: Mammalian orthoreovirus 1; test: Antiviral activity against Mammalian orthoreovirus 1 infected Vero cells assessed as inhibition of virus-induced cytopathicity by microscopy; assay type: functional, organism-based; conditions: Mammalian orthoreovirus 1, Vero
Bacillus subtilis = test: Antimicrobial activity against Bacillus subtilis after 24 hr by tube dilution method; assay type: functional
HEL = test: Cytostatic against Homo sapiens (human) HEL cells assessed as alteration in cell morphology by microscopy; assay type: ADME, cell-based
Sindbis virus = test: Antiviral activity against Sindbis virus infected Vero cells assessed as inhibition of virus-induced cytopathicity; assay type: functional, organism-based
[5] = tested on: Respiratory syncytial virus; test: Antiviral activity against Respiratory syncytial virus infected human HeLa cells assessed as inhibition of virus-induced cytopathicity by microscopy; assay type: functional, organism-based
Punta Toro virus = test: Antiviral activity against Punta Toro virus infected Vero cells assessed as inhibition of virus-induced cytopathicity; assay type: functional, organism-based
Human alphaherpesvirus 1 [6] = test: Antiviral activity against TK(-) aciclovir-resistant Human herpesvirus 1 strain KOS infected in human HEL cells assessed as inhibition of virus-induced cytopathicity; assay type: functional, organism-based; conditions: Human alphaherpesvirus 1, KOS
[7] = Cytotoxicity against Chlorocebus aethiops (African green monkey) Vero cells assessed as alteration in cell morphology by microscopy; assay type: cell-based; conditions: chlorocebus sabaeus, read-out: MTC
Coxsackievirus B4 [8] = test: Antiviral activity against Human coxsackievirus B4 infected Vero cells assessed as inhibition of virus-induced cytopathicity; assay type: functional, organism-based; conditions: Enterovirus B
[9] = tested on: Human immunodeficiency virus 1; test: Antiviral activity against Human immunodeficiency virus 1 IIIB infected MT4 cells assessed as inhibition of virus-induced cytopathic effect after 4 days by MTT assay; assay type: functional, organism-based; conditions: MT4, 96 h
Human alphaherpesvirus 1 [10] = test: Antiviral activity against Human herpesvirus 1 strain KOS infected human HEL cells assessed as inhibition of virus-induced cytopathicity by microscopy by microscopy; assay type: functional, organism-based; conditions: Human alphaherpesvirus 1, KOS
[11] = Cytotoxicity against Homo sapiens (human) MT4 cells after 4 days by MTT assay; assay type: cell-based
Coxsackievirus B4 [12] = test: Antiviral activity against Human coxsackievirus B4 infected human HeLa cells assessed as inhibition of virus-induced cytopathicity by microscopy; assay type: functional, organism-based; conditions: Enterovirus B
Human alphaherpesvirus 2 = test: Antiviral activity against Human herpesvirus 2 strain G infected human HEL cells assessed as inhibition of virus-induced cytopathicity by microscopy; assay type: functional, organism-based; conditions: Human alphaherpesvirus 2, strain G
Human respirovirus 3 = test: Antiviral activity against Human parainfluenza virus 3 infected Vero cells assessed as inhibition of virus-induced cytopathicity by microscopy; assay type: functional, organism-based; conditions: Human respirovirus 3, Vero
[13] = Cytotoxicity against Homo sapiens (human) HeLa cells assessed as alteration in cell morphology by microscopy; assay type: cell-based; conditions: read-out: MTC
Vaccinia virus = test: Antiviral activity against Vaccinia virus infected human HEL cells assessed as inhibition of virus-induced cytopathicity by microscopy; assay type: functional, organism-based; conditions: Orthopoxvirus vaccinia
Candida albicans = test: Antimicrobial activity against Candida albicans after 48 hr by tube dilution method; assay type: functional
[14] = tested on: Vesicular stomatitis virus; test: Antiviral activity against Vesicular stomatitis virus infected human HeLa cells assessed as inhibition of virus-induced cytopathicity by microscopy; assay type: functional, organism-based
[15] = tested on: Human herpesvirus 5 strain AD169; test: Antiviral activity against Human herpesvirus 5 strain AD169 Davis infected human HEL cells assessed as inhibition of virus-induced cytopathicity by microscopy; assay type: functional, organism-based; conditions: Human betaherpesvirus 5, Davis
Aspergillus niger = test: Antimicrobial activity against Aspergillus niger after 7 days by tube dilution method; assay type: functional

Structure (SMILES)	CC50 [1] [µg/mL]	MCC [1] [µg/mL]	-logMIC (Staphylococcus aureus)	-logMIC (Escherichia coli)	EC50 [2] [µg/mL]	EC50 [3] [µg/mL]	EC50 [4] [µg/mL]	-logMIC (Bacillus subtilis)	Activity (HEL)	EC50 (Sindbis virus) [µg/mL]	EC50 [5] [µg/mL]	EC50 (Punta Toro virus) [µg/mL]	EC50 (Human alphaherpesvirus 1 [6]) [µg/mL]	MCC [7] [µg/mL]	EC50 (Coxsackievirus B4 [8]) [µg/mL]	EC50 [9] [µg/mL]	EC50 (Human alphaherpesvirus 1 [10]) [µg/mL]	CC50 at 96 h [11] [µg/mL]	EC50 (Coxsackievirus B4 [12]) [µg/mL]	EC50 (Human alphaherpesvirus 2) [µg/mL]	other results
C/C(=N\NC(=O)c1ccncc1)c1ccc([N+](=O)[O-])cc1	54 (≈ 190 µM)	> 100	2.06	2.36	> 77	> 20	> 20	2.06	Toxic	> 20	> 20	> 20	> 100	100	> 20	> 77	> 100	77 (≈ 271 µM)	> 20	> 100	EC50 (Human respirovirus 3): > 20 µg/mL; MCC [13]: 100 µg/mL; EC50 (Vaccinia virus): > 100 µg/mL; -logMIC (Candida albicans): 2.36; EC50 [14]: > 20 µg/mL; EC50 [15]: > 20 µg/mL; -logMIC (Aspergillus niger): 2.36
C/C(=N\NC(=O)c1ccncc1)c1ccc(O)cc1	91 (≈ 356 µM)	100	2.01	2.01	> 95	> 20	> 20	2.01	Toxic	> 20	> 20	> 20	> 20	≥ 20	> 20	> 95	> 20	95 (≈ 372 µM)	> 20	> 20	EC50 (Human respirovirus 3): > 20 µg/mL; MCC [13]: 100 µg/mL; EC50 (Vaccinia virus): > 20 µg/mL; -logMIC (Candida albicans): 2.31; EC50 [14]: > 20 µg/mL; EC50 [15]: > 20 µg/mL; -logMIC (Aspergillus niger): 2.31
O=C(NN=C1CCCCCC1)c1ccncc1 [N'-CYCLOHEPTYLIDENEISONICOTINOHYDRAZIDE]	> 100	> 100	1.66	1.36	> 86	> 100	> 100	1.66	Toxic	> 100	> 100	> 100	> 100	> 100	> 100	> 86	> 100	86 (≈ 372 µM)	> 100	> 100	EC50 (Human respirovirus 3): > 100 µg/mL; MCC [13]: > 100 µg/mL; EC50 (Vaccinia virus): > 100 µg/mL; -logMIC (Candida albicans): 1.66; EC50 [14]: > 100 µg/mL; EC50 [15]: > 100 µg/mL; -logMIC (Aspergillus niger): 1.66
C/C(=N\NC(=O)c1ccncc1)c1ccc(O)cc1O	2.1 (≈ 7.74 µM)	> 100	2.04	2.04	> 9.7	8 (≈ 29.5 µM)	> 4	2.04	Toxic	> 4	> 0.8	> 4	2 (≈ 7.37 µM)	20	> 4	> 9.7	2.5 (≈ 9.22 µM)	9.7 (≈ 35.8 µM)	> 0.8	2 (≈ 7.37 µM)	EC50 (Human respirovirus 3): > 4 µg/mL; MCC [13]: 4 µg/mL; EC50 (Vaccinia virus): 2.5 µg/mL (≈ 9.22 µM); -logMIC (Candida albicans): 2.64; EC50 [14]: > 0.8 µg/mL; EC50 [15]: > 4 µg/mL; -logMIC (Aspergillus niger): 2.34
COc1ccc(OC)c(/C(C)=N/NC(=O)c2ccncc2)c1	100 (≈ 334 µM)	> 100	2.08	2.68	> 88	> 100	> 100	2.08	Toxic	> 100	> 100	> 100	> 100	> 100	> 100	> 88	> 100	88 (≈ 294 µM)	> 100	> 100	EC50 (Human respirovirus 3): > 100 µg/mL; MCC [13]: > 100 µg/mL; EC50 (Vaccinia virus): > 100 µg/mL; -logMIC (Candida albicans): 2.38; EC50 [14]: > 100 µg/mL; EC50 [15]: > 100 µg/mL; -logMIC (Aspergillus niger): 2.38
